Experimental data from ChEMBL document CHEMBL1201862, “PubChem BioAssay data set” (2004).
Calls of active or inactive are those of the source.

Experiments:
[1] = target: 1-acylglycerol-3-phosphate O-acyltransferase ABHD5/Perilipin-5 (Homo sapiens, UniProt Q00G26+Q8WTS1); assay: Luminescence-based biochemical high throughput dose response assay for inhibitors of the interaction of the lipase co-activator protein, abhydrolase domain containing 5 (ABHD5) with perilipin-5 (MLDP; PLIN5) (2K validation set). [Related pubchem assays (depositor defined):AID493035, AID493241]
Perilipin-1/ABHD5 = Perilipin-1/ABHD5 (Homo sapiens, UniProt O60240+Q8WTS1); assay: Luminescence-based biochemical high throughput dose response assay for inhibitors of the interaction of the lipase co-activator protein, abhydrolase domain containing 5 (ABHD5) with perilipin-1 (PLIN1) (2K validation set). [Related pubchem assays (depositor defined):AID493027, AID493057]
Mu-type opioid receptor = Mu-type opioid receptor (Homo sapiens, UniProt P35372); assay: SAR Analysis of Antagonists of the MOR Receptor using an Image-Based Assay - Set 3. [Related pubchem assays (depositor defined):AID1777, AID1785, AID1786, AID1966, AID2133, AID2136, AID2284, AID2285, AID2420]; format: functional
[2] = target: Delta-type opioid receptor (Homo sapiens, UniProt P41143); assay: SAR Analysis of Antagonists of the DOR Receptor using an Image-Based Assay - Set 3. [Related pubchem assays (depositor defined):AID1777, AID1785]; format: functional;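 also: U2OS cells expressing DOR1 and beta-arrestin GFP stimulated with 100 nM SNC80; imaging of GFP-tagged beta-arrestin moving into spots after receptor activation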
[3] = target: T1, Kappa-type opioid receptor (Homo sapiens, UniProt P41145); assay: SAR analysis of small molecule antagonists of the kappa opioid receptor via a luminescent beta-arrestin assay - Set 3. [Related pubchem assays (depositor defined):AID1777, AID1778, AID1785, AID1786, AID1966, AID2133, AID2136, AID2285, AID2495]; format: functional
[4] = target: T1, Kappa-type opioid receptor; assay: SAR analysis of Antagonists of the Kappa Opioid Receptor (KOR) using an Image-Based Assay - Set 3. [Related pubchem assays (depositor defined):AID1777, AID1785]; format: functional
[5] = target: Alkaline phosphatase, placental type (Homo sapiens, UniProt P05187); assay: PLAP enzyme inhibitors, confirmation, biochemical, luminescence (AID 1512); format: functional
[6] = target: T2, Alkaline phosphatase, tissue-nonspecific isozyme (Homo sapiens, UniProt P05186); assay: human TNAP enzyme inhibitors, SAR follow-up, biochemical, luminescent, dose response (AID 1056)
T2 sequence (P05186 whole entry): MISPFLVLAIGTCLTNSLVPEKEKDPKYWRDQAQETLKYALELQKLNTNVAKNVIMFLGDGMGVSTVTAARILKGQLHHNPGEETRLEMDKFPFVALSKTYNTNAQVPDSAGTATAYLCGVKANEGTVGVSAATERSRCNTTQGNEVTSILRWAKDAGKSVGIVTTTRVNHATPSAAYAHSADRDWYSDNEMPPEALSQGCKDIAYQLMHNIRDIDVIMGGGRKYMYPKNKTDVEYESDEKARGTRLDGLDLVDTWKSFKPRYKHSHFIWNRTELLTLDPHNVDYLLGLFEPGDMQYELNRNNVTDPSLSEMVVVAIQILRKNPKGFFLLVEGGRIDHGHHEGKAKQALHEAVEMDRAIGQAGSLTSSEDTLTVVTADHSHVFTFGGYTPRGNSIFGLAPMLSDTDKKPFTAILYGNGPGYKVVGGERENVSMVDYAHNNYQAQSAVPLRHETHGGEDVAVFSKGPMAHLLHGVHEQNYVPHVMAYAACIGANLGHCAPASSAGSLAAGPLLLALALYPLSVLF

Integrin alpha-L = Integrin alpha-L (Mus musculus, UniProt P24063); assay: modulators of CD8 T cell-vesicle binding, dose response, powder samples, mouse 2C CD8+ cells (AID 504565); format: functional
CAAX prenyl protease 2 = CAAX prenyl protease 2 (Saccharomyces cerevisiae S288c, UniProt Q03530); format: biochemical
[7] = HIV-1 Env-mediated cell fusion inhibitors, dose response, CCR5-tropic Env (AID 2279); format: functional
Troponin, cardiac muscle = Troponin, cardiac muscle (Homo sapiens, UniProt P19429+P45379+P63316); assay: inhibitors of cardiac thin filament calcium sensitivity, dose response, biochemical, fluorescence, cardiac regulated thin filaments, triplicate IC50 (AID 504742); format: protein-complex assay
[8] = target: T3, Replicative DNA helicase DnaB (Mycobacterium tuberculosis, UniProt P9WMR3); assay: DnaB intein splicing inhibitors, dose response, biochemical, cell-free fluorescence (AID 449749); format: functional
T3 sequence (P9WMR3 whole entry): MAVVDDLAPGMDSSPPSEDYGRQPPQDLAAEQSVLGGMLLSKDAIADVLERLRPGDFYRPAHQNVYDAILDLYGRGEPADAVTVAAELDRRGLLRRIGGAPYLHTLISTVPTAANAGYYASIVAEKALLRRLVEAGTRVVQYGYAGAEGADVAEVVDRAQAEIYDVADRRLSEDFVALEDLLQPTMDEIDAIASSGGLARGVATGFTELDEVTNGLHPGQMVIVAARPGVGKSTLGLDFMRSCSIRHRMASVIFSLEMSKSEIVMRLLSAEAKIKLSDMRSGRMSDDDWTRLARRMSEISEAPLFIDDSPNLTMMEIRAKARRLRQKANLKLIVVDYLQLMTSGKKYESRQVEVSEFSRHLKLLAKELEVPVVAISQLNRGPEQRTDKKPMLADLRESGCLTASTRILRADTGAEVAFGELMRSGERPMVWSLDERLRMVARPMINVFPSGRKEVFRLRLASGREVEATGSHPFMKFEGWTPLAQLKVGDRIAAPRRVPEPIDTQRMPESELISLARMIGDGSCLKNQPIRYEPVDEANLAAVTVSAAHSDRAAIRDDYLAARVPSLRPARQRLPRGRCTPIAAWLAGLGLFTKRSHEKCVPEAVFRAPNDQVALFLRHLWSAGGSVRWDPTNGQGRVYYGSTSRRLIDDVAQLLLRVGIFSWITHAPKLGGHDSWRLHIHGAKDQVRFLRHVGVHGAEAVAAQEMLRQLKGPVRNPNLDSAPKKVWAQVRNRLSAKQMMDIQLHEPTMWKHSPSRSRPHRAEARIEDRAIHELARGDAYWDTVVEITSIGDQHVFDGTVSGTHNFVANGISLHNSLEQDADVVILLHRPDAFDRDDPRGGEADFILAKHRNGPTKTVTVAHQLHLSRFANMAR

Vero = Vero cell cytotoxicity, cytotoxicity control for flavivirus capping enzyme inhibitors (AID 588742); format: functional; conditions: Chlorocebus sabaeus
Protein RecA = target: T4, Protein RecA (Mycobacterium tuberculosis, UniProt P9WHJ3); assay: Fluorescence Cell-Free Homogeneous Dose Retest to Identify Inhibitors of RecA-Intein Splicing Activity. [Related pubchem assays (depositor defined):AID2097, AID2223, AID489010, AID492950]; format: functional
T4 sequence (P9WHJ3 whole entry): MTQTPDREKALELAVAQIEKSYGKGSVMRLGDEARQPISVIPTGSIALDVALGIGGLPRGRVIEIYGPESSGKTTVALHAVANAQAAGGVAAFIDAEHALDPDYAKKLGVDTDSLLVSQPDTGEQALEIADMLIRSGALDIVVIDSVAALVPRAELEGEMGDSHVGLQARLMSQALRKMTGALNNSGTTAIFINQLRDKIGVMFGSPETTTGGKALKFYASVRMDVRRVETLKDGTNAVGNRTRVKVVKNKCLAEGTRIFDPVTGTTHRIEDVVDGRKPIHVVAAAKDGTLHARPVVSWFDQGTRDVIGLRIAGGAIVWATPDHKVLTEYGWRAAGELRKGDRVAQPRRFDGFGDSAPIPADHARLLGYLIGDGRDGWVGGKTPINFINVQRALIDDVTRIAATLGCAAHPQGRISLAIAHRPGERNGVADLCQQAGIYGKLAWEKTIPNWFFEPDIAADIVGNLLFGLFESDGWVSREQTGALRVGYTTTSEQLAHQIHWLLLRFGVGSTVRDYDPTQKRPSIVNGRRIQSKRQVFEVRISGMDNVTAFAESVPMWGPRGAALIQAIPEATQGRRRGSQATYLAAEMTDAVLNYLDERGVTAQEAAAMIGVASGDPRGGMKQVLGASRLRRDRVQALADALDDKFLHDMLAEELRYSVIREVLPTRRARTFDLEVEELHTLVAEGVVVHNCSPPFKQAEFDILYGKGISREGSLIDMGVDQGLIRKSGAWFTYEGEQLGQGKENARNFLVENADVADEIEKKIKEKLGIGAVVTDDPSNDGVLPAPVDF

Genome polyprotein = Genome polyprotein (dengue virus type 2, UniProt P29990); assay: Dengue-2 NS5 methyltransferase inhibitors, primary screen, biochemical, confirmation dose response (AID 588689); format: functional
[9] = target: Dual specificity tyrosine-phosphorylation-regulated kinase 1A (Rattus norvegicus, UniProt Q63470); format: biochemical, Homo sapiens
[10] = target: T5, Small ubiquitin-related modifier 2 (Homo sapiens, UniProt P61956); assay: SUMO2–SIM peptide binding inhibitors, dose response, selectivity assay for SUMO1 interaction inhibitor project, biochemical, fluorescence polarization, uHTS hits (AID 624385); format: functional; conditions: read-out: IC50_Mean
[11] = target: T6, Small ubiquitin-related modifier 1 (Homo sapiens, UniProt P63165); assay: inhibitors of SUMO1 peptide binding, dose response, biochemical, fluorescence polarization, uHTS hits (AID 624382); format: functional; conditions: read-out: IC50_Mean
[12] = target: T5, Small ubiquitin-related modifier 2; assay: inhibitors of SUMO2 protein-protein interaction, dose response, selectivity assay for SUMO1 interaction inhibitor project, biochemical, FRET, human SUMO2, uHTS hits (AID 624384); format: functional; conditions: read-out: IC50_Mean
[13] = target: T6, Small ubiquitin-related modifier 1; assay: inhibitors of SUMO1 partner interactions, dose response, biochemical, FRET (AID 624383); format: functional; conditions: read-out: IC50_Mean
[14] = target: T7, Mannose-6-phosphate isomerase (Homo sapiens, UniProt P34949); assay: PMI enzyme inhibitors, confirmation, biochemical, fluorescence intensity (AID 1535)
T7 sequence (P34949 whole entry): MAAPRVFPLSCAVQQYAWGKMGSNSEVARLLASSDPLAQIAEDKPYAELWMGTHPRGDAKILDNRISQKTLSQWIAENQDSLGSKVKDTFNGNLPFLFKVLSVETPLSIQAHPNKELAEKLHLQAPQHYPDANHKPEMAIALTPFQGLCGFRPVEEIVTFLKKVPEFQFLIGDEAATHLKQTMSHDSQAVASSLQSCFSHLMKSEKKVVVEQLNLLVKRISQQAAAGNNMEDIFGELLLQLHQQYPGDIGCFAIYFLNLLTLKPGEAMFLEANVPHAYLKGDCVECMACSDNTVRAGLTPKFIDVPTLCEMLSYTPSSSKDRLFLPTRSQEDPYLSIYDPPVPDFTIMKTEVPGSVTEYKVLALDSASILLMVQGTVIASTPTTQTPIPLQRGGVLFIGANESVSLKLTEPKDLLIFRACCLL

Phosphomannomutase 2 = Phosphomannomutase 2 (Homo sapiens, UniProt O15305); assay: Counter screen SAR assay for PMM2 inhibitors via a fluorescence intensity assay. [Related pubchem assays (depositor defined):AID1545, AID1574]
Hexokinase = Hexokinase (Trypanosoma brucei, UniProt Q38C41); assay: Confirmation assay for inhibitors of Trypanosoma brucei hexokinase 1-Analogue-first series. [Related pubchem assays (depositor defined):AID1430, AID1632, AID2516, AID2560, AID2579, AID2600, AID449725, AID492951]; format: functional
[15] = target: T1, Kappa-type opioid receptor; assay: SAR analysis of small molecule antagonists of the kappa opioid receptor via a luminescent beta-arrestin assay - Set 6. [Related pubchem assays (depositor defined):AID1777, AID1778, AID1785, AID1786, AID1966, AID2133, AID2136, AID2285]; format: functional
[16] = target: T1, Kappa-type opioid receptor; assay: SAR analysis of Antagonists of the Kappa Opioid Receptor (KOR) using an Image-Based Assay - Set 4. [Related pubchem assays (depositor defined):AID1777, AID1785]; format: functional

O=C(CN1CC[n+]2c(-c3cccs3)csc21)c1ccc(Br)cc1
IC50 [1]: 14.8 µM (inactive) | IC50 (Perilipin-1/ABHD5): 27.5 µM (inactive)

CCN(CCNC(=O)c1ccc(CNS(=O)(=O)c2ccc(OC)cc2)cc1)Cc1ccccc1
IC50 (Mu-type opioid receptor): 12.6 µM (inactive) | IC50 [2]: > 32 µM (inactive) | IC50 [3]: 16.3 µM (inactive) | IC50 [4]: 10.8 µM (inactive)

O=C(NC1(C(Cl)(Cl)Cl)Oc2ccccc2O1)OCN1C(=O)C2C=CC=CC2C1=O (centres undefined)
IC50 [5]: > 100 µM (inactive) | IC50 [6]: > 100 µM (inactive)

Cc1ccccc1C(=O)N1CCC(C(=O)Nc2ccc(C)c(S(=O)(=O)N3CCCCC3)c2)CC1
EC50 (Integrin alpha-L): 29.1 µM (inactive)

O=C(CCNC(=O)N1CC(=O)Nc2ccccc21)NCCc1cccc(F)c1
AC50 (CAAX prenyl protease 2): 0.359 µM (active)

O=[N+]([O-])c1cc([N+](=O)[O-])c2oc(-c3ccccc3)c(Br)c2c1O
IC50 [7]: 16.3 µM (active) | IC50 (Troponin, cardiac muscle): > 23.8 µM (inactive) | AC50 [8]: 3.08 µM (active) | CC50 (Vero): 17.9 µM (active) | EC50 (Protein RecA): 111 µM (active) | IC50 (Genome polyprotein): 43.8 µM (active) | AC50 [9]: 1.94 µM (active) | IC50 [10]: 3.44 µM (active) | IC50 [11]: 4.09 µM (active) | IC50 [12]: > 66 µM (inactive) | IC50 [13]: 50.9 µM (inactive)

Cc1csc(-n2sc3ccccc3c2=O)n1
IC50 [14]: > 50 µM (inactive) | IC50 (Phosphomannomutase 2): > 100 µM (inactive)

CC(C)(C)c1ccc(C(=O)Nc2cc(Cl)ccc2-c2nnn[nH]2)cc1
IC50 (Hexokinase): 3.46 µM (active)

Cc1ccnc2c1n1cccc1c(=O)n2CC(=O)NCCCN1CCN(c2ccc(Cl)cc2)CC1
IC50 (Mu-type opioid receptor): > 32 µM (inactive) | IC50 [15]: 1.01 µM (active) | IC50 [2]: > 32 µM (inactive) | IC50 [3]: 0.363 µM (active) | IC50 [16]: 0.0696 µM (active)
